Laboratory results taken from patent US12037372B2, “Bioactive peptides derived from snakes” (Universiteit Leiden, priority 2018, dated 2024).
Entries after “also recorded” stand apart in the source; their conditions may differ.

Key:
[1] = tested on: MDR K. pneumoniae (LUH 15104); assay: Bactericidal activity of peptides (in vitro killing assay); format: cell-based, Klebsiella pneumoniae; settings: PBS with 50% plasma, 2 hours
Method: (§1) Enterococcus faecium (LUH 15122), Staphylococcus aureus (LUH 14616), Klebsiella pneumoniae (LUH 15104), Acinetobacter baumannii (RUH 875), Pseudomonas aeruginosa (LUH 15103), Enterobacter cloacae (LUH 15114) and Escherichia coli (LUH 15117) were used. Prior to experimentation the bacteria were taken from a glycerol stock stored at −80° C. and cultured overnight on sheep blood agar plates at 37° C. On the day of experimentation the bacteria were cultured in tryptic soy broth (TSB; Oxoid) for 2.5 hours at 37° C. and 200 rpm to a mid-logarithmic phase. The bacterial suspension was washed in phosphate buffered saline (PBS; pH 7.4), centrifuged for 10 minutes at 3000 rpm, and resuspended in PBS to the desired concentration, as determined by measuring the absorbance at 600 nm.
(§2) As a control the bacteria were also incubated in PBS with either 50% plasma or 50% urine without peptide. The plate was incubated for 2 hours at 37° C. and 200 rpm. After incubation the number of viable bacteria was determined microbiologically by plating the samples and a 10-times dilution series in PBS on diagnostic sensitivity test agar plates (DST; Sigma). The DST plates were incubated overnight at 37° C. Results were expressed as lethal concentration 99.9, or LC99.9, which represents the lowest concentration of peptide that killed 99.9% of the bacteria within 2 hours of incubation.

[2] = tested on: multidrug resistant strain Acinetobacter baumannii RUH875; assay: as above; format: cell-based
Method: as §1, §2

[3] = tested on: MDR E. cloacae (LUH 15114); assay: as above; format: cell-based, Enterobacter cloacae; settings: PBS with 50% plasma, 2 hours
Method: as §1, §2

A. Baumannii [4] = assay: Killing of A. baumannii in BM2 medium (control); format: cell-based, Acinetobacter baumannii; settings: 0.8 μM peptide
Method: As a control, the ability of these peptides to kill A. baumannii in BM2 medium was assessed.

E. faecium (LUH 15122) = assay: Bactericidal activity of peptides (in vitro killing assay); format: cell-based, Enterococcus faecium; settings: PBS with 50% plasma, 2 hours
Method: as §1, §2

[5] = tested on: MRSA (S. aureus LUH 14616) on ex vivo human skin; assay: Ex vivo skin model; set-up: species or system Staphylococcus aureus; settings: 10 μl peptide solution; 1 hour treatment
From the text: The donor skin was transported to the LUMC in RPMI 1640 medium (Gibco) supplemented with penicillin/streptomycin (Gibco). Skin samples were washed in PBS and left overnight in RPMI 1640 medium without antibiotics. On the day of the experiment the skin was again washed in PBS, then spread out and punches with a diameter of 8 mm diameter were made with a biopsy punch (Stiefel). The skin samples were dried with a cotton swab. A liquid dam was made with LC Block-Out Resin (Ultradent) on the edge of the skin samples to prevent liquids from dripping off. The liquid dam was solidified by 4 seconds exposure of UV light (Super 1200 led; ECO). The skin samples were placed on grids in a 12-well plate (Costar) filled underneath with medium comprising Ham F12, DMEM and FCS (Gibco). An S. aureus LUH 14616 bacterial suspension was cultured and washed as described before. The skin punches were inoculated with 5 μl of the bacterial suspension (1×10^8 CFU/ml) for one hour at 37° C. and 5% CO2. […] The infected skin was treated for 1 hour at 37° C. and 5% CO2 with 10 μl of the peptide solutions, including a control with 10 μl of PBS alone. Polypropylene tubes were filed with glass beads (1.7 mm diameter) and 1 ml of PBS. The liquid dam was removed from the skin after treatment. […] Results were expressed as the number of viable bacteria (CFU/ml) after treatment.

[6] = tested on: colistin-resistant E. coli (LUH 15117); assay: Bactericidal activity of peptides (in vitro killing assay); format: cell-based, Escherichia coli; settings: PBS with 50% plasma, 2 hours
Method: as §1, §2

S. aureus LUH 14616 = assay: Resistance development assay; format: cell-based, Staphylococcus aureus; settings: 20 passages
Method: (§3) A bacterial culture was prepared and washed as described before. The bacterial culture was diluted to a concentration of 5×10^6 CFU/ml in modified RPMI 1640 comprising 20 mM HEPES, L-glutamine and without sodium bicarbonate (RPMImod; Sigma-Aldrich). In a polypropylene 96-well plate, a two-fold peptide dilution series was made in RPMImod with concentrations ranging from 0.94 μM to 240 μM. […] A negative control of RPMImod without peptide or an antibiotic was included for both dilution series. A contamination control was included containing only RPMImod. To all the wells, except the contamination control wells, 5 μl of the bacterial suspension were added. The plate was sealed and incubated overnight at 37° C. and 200 rpm. After incubation the MIC was determined as the well with the lowest peptide concentration and no bacterial growth. The well with half the MIC was diluted 2.5-fold with RPMImod and transferred to an Eppendorf tube. […] The results were expressed as the fold increase of the MIC compared to the MIC at the first passage.

E. coli = assay: Resistance development assay; format: cell-based, Escherichia coli; settings: 20 passages
Method: as §3

[7] = tested on: 24-hour biofilm of A. baumannii RUH 875; assay: Biofilm breakdown assay; format: cell-based, Acinetobacter baumannii; settings: 2-hour treatment
Method: To a polypropylene 96-well flat-bottom plate (Greiner) 50 μl of a bacterial suspension at a concentration of 1×10^7 CFU/ml in BM2 medium (Overhage et al., 2008) were added. A control comprising BM2 medium alone was included. The plate was sealed off with a seal (Costar) and incubated in a humidified environment for 24 hours at 37° C. Thereafter the wells were washed 2 times with PBS. […] The plate was sealed off and incubated for 2 hours at 37° C. and 200 rpm. For analysis the plate was sonicated (Ultrasoonbad BRANSONIC® m1800H-E; Boom b.v.) for 5 minutes to detach the biofilm bacteria. The number of viable bacteria in the sonicates was determined microbiologically by plating the samples and a 10-times dilution series on DST agar plates and incubating these overnight at 37° C. Results were expressed as the LC99.9.

[8] = tested on: drug-sensitive strain Escherichia coli LUH15108; assay: Bactericidal activity of peptides (in vitro killing assay), alanine scan; format: cell-based; settings: lowest concentration killing 99.9% of an inoculum of about one million bacteria, 50% (v/v) human plasma, within 2 hours
Method: The amino acids of the SP27 peptide were substituted at various positions with Alanine. The substituted peptides were tested on A. baumannii and E. coli bacterial strains for having antimicrobial activity. Furthermore, the substituted peptides were tested for their hemolytic activity as an indicator for their toxicity.

A. Baumannii [9] = assay: Resistance development assay; format: cell-based, Acinetobacter baumannii; settings: 20 passages
Method: as §3

Question: With “KRFKKFFRKVKKGVHRYFKKNKFYIAATIPYYG [SP27]” as the sequence, how does the “LC99.9, bactericidal activity” value [1] read?
Answer: Its value is “submicromolar concentrations”.

Question: What about the “LC99.9, bactericidal activity” value ([2]; MDR A. baumannii, PBS with 50% plasma, 2 hours) of the same sequence?
Answer: The value was “submicromolar concentrations”.

Question: And the “LC99.9 (μM) A. baumannii” value ([2]; Table 5, 50% (v/v) human plasma, 2 hours)?
Answer: Its value is 0.8 µM.

Question: What about the “LC99.9 (μM) A. baumannii” value ([2]; Table 6, 50% (v/v) human plasma, 2 hours) of the same sequence?
Answer: Its value is 0.8 µM.

Question: What about the “LC99.9 (μM) A. baumannii” value ([2]; lowest concentration killing 99.9% of an inoculum of about one million bacteria in 50% (v/v) human plasma within 2 hours, A. baumannii RUH875) of the same sequence?
Answer: The value was 0.8 µM.

Question: What about the “LC99.9 (μM) A. baumannii” value ([2]; lowest concentration killing 99.9% of an inoculum of about one million bacteria, 50% (v/v) human plasma, within 2 hours, A. baumannii RUH875) of the same sequence?
Answer: The value was 0.8 µM.

Question: What about the “LC99.9 (μM) A. baumannii” value ([2]; lowest concentration of the peptide that kills 99.9% of an inoculum of about one million bacteria in the presence of 50% (v/v) human plasma within 2 hours, Acinetobacter baumannii RUH875) of the same sequence?
Answer: The value was 0.8 µM.

Question: What about the “LC99.9, bactericidal activity” value [3] of the same sequence?
Answer: The value was “submicromolar concentrations”.

Question: What about the “reduction of viable bacteria” value (A. Baumannii [4]) of the same sequence?
Answer: Its value is 2 log.

Question: And the “LC99.9, bactericidal activity” value (E. faecium (LUH 15122))?
Answer: Its value is “low micromolar concentrations”.

Question: What about the “peptide concentration killing 99.9% of the MRSA on ex vivo human skin” value [5] of the same sequence?
Answer: The value was 204.8 µM.

Question: And the “LC99.9, bactericidal activity” value [6]?
Answer: The value was “submicromolar concentrations”.

Question: What about the “resistance development: fold increase of the MIC” value (S. aureus LUH 14616) of the same sequence?
Answer: Its value is “remained constant for all 20 passages; also recorded: limited resistance”.

Question: What about the “resistance development: fold increase of the MIC” value (E. coli) of the same sequence?
Answer: The value was “remained constant for all 20 passages”.

Question: And the “peptide concentration with complete elimination of the biofilms” value [7]?
Answer: The value was 51.2 µM.

Question: What about the “LC99.9 (μM) E. coli” value [8] of the same sequence?
Answer: The value was 1.6 µM.

Question: And the “resistance development: fold increase of the MIC” value (A. Baumannii [9])?
Answer: Its value is “remained constant for all 20 passages”.
